This is an account of results in patent US8809342B2, “Glucagon receptor modulators” (Pfizer Inc., priority 2010, dated 2014).

The target of the assay is T1, human glucagon receptor (Homo sapiens, UniProt P47871).
T1 construct: expressed in transfected cells; host or cells: CHO-K1 cells, stably transfected
T1 sequence (P47871 26-477): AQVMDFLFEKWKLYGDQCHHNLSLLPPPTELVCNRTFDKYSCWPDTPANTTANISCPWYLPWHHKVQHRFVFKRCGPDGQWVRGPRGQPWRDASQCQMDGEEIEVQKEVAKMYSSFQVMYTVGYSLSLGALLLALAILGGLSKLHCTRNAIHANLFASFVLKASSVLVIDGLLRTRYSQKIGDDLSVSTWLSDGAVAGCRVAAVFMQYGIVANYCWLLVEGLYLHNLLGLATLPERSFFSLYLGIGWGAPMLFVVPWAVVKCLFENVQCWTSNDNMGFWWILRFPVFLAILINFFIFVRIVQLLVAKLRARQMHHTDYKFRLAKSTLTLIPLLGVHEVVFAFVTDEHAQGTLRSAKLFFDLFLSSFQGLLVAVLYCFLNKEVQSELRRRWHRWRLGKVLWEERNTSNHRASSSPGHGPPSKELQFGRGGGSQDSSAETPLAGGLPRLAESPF
In words: Glucagon cAMP assay (Cisbio cAMP detection). Further: 100 pM glucagon challenge. In kind it is cell-based. On the technique in general: Cyclic AMP is a second messenger, typically raised through Gs and lowered through Gi signalling.
`CC(C)CC(Nc1ncc(C(=O)NCCC(=O)O)cn1)c1ccc(-c2ccc(C(F)(F)F)cc2)cc1` (single isomer, unassigned; isomer 2) [Example 1.6, 3-(2-(3-methyl-1-(4′-(trifluoromethyl)biphenyl-4-yl)butylamino)pyrimidine-5-carboxamido)propanoic acid, Isomer 2] had a Kb of 210 nM.

Regarding `CCCC(Nc1ccc(C(=O)NCCC(=O)O)cn1)c1ccc(-c2ccc(C(F)(F)F)cc2)cc1` (single isomer, unassigned; isomer 2) [Example 1.9, 3-(6-(1-(4′-(trifluoromethyl)biphenyl-4-yl)butylamino)nicotinamido) propanoic acid, Isomer 2], the Kb amounted to 130 nM.

On to `CCC(Nc1ccc(C(=O)NCCC(=O)O)cn1)c1ccc(-c2ccc(C(F)(F)F)cc2)cc1` (single isomer, unassigned; isomer 2) [Example 1.13, 3-(6-(1-(4′-(trifluoromethyl)biphenyl-4-yl)propylamino)nicotinamido) propanoic acid, Isomer 2], for which the Kb turned out to be 150 nM.

Turning to `CC(C)CC(Nc1cnc(C(=O)NCCC(=O)O)cn1)c1ccc(-c2ccc(C(F)(F)F)cc2)cc1` (single isomer, unassigned; isomer 2) [Example 1.18, 3-(5-(3-methyl-1-(4′-(trifluoromethyl)biphenyl-4-yl)butylamino)pyrazine-2-carboxamido)propanoic acid, Isomer 2], the Kb was found to be 120 nM.

As to `CC(C)CC(Nc1ccc(-c2ccc(C(F)(F)F)cc2)cc1)c1ccc(C(=O)NCCC(=O)O)cn1` (single isomer, unassigned; isomer 2) [Example 2.6, 3-(6-(3-methyl-1-(4′-(trifluoromethyl)biphenyl-4-ylamino)butyl)nicotinamido)propanoic acid, Isomer 2], the Kb is 500 nM.

As for `CCCC(Nc1cnc(-c2ccc(C(F)(F)F)cc2)nc1)c1ccc(C(=O)NCCC(=O)O)cc1` (single isomer, unassigned; isomer 2) [Example 2.17, 3-(4-(1-(2-(4-(trifluoromethyl)phenyl)pyrimidin-5-ylamino)butyl)benzamido)propanoic acid, Isomer 2], the Kb worked out at 420 nM.

Consider `CC(C)C[C@@H](Nc1ccc(C(=O)NCCC(=O)O)cn1)c1ccc(-c2ccc(C(F)(F)F)cc2)nc1` (single isomer, unassigned; isomer 2) [Example 4.21, 3-(6-(3-methyl-1-(6-(4-(trifluoromethyl)phenyl)pyridin-3-yl)butylamino)nicotinamido) propanoic acid, Isomer 2], for which the Kb was 980 nM.

In turn, `CC(C)C[C@@H](Nc1ccc(C(=O)NCCC(=O)O)cn1)c1ccc(-c2ccc(C(F)(F)F)cc2)cc1` [Example 1.1, (R)-3-(6-(3-methyl-1-(4′-(trifluoromethyl)biphenyl-4-yl)butylamino)nicotinamido)propanoic acid] showed a Kb of 1700 nM.

In the case of `CC(C)C[C@H](Nc1ccc(C(=O)NCCC(=O)O)cn1)c1ccc(-c2ccc(C(F)(F)F)cc2)cc1` [Example 1.3, (−)-(S)-3-(6-(3-methyl-1-(4′-(trifluoromethyl)biphenyl-4-yl)butylamino)nicotinamido)propanoic acid], the Kb is 73 nM.

In turn, `CC(C)C[C@H](Nc1ccc(C(=O)NCCC(=O)O)cn1)c1ccc(-c2ccc(C(F)(F)F)cn2)cc1` [Example 4.1, (S)—N-({6-[(3-methyl-1-{4-[5-(trifluoromethyl)pyridin-2-yl]phenyl}butyl)amino]pyridin-3-yl}carbonyl)-beta-alanine] gave a Kb of 67 nM.

For the compound `CCC[C@H](Nc1cnc(-c2ccc(C(F)(F)F)cc2)cn1)c1ccc(C(=O)NCCC(=O)O)cc1` [Example 4.4, (S)-3-(4-(1-((5-(4-(trifluoromethyl)phenyl)pyrazin-2-yl)amino)butyl)benzamido)propanoic acid], the Kb stood at 66 nM.

`CCC[C@@H](Nc1cnc(-c2ccc(C(F)(F)F)cc2)cn1)c1ccc(C(=O)NCCC(=O)O)cc1` [Example 4.5, (R)-3-(4-(1-((5-(4-(trifluoromethyl)phenyl)pyrazin-2-yl)amino)butyl)benzamido)propanoic acid] had a Kb of 820 nM.

In turn, `O=C(O)CCNC(=O)c1ccc(NC(CC2CC2)c2ccc(-c3ccc(C(F)(F)F)cc3)cc2)nc1` (stereo not drawn) [Example 4.14, 3-(6-(2-cyclopropyl-1-(4′-(trifluoromethyl)biphenyl-4-yl)ethylamino)nicotinamido)propanoic acid] came in with a Kb of 110 nM.

The compound `Cc1cc(C(CC(C)C)Nc2ccc(C(=O)NCCC(=O)O)cn2)cnc1-c1ccc(C(F)(F)F)cc1` (stereo not drawn) [Example 4.15, 3-(6-(3-methyl-1-(5-methyl-6-(4-(trifluoromethyl)phenyl)pyridin-3-yl)butylamino)nicotinamido)propanoic acid] returned a Kb of 370 nM.

As to `CCCC(Nc1ncc(C(=O)NCCC(=O)O)cn1)c1ccc(-c2ccc(C(F)(F)F)cc2)cc1` (stereo not drawn) [Example 4.17, 3-(2-(1-(4′-(trifluoromethyl)biphenyl-4-yl)butylamino)pyrimidine-5-carboxamido)propanoic acid], the Kb was determined as 340 nM.

Turning to `CCCC(Nc1ccc(-c2ccc(C(F)(F)F)cc2)nc1)c1ccc(C(=O)NCCC(=O)O)cc1` (stereo not drawn) [Example 4.18, 3-(4-(1-(6-(4-(trifluoromethyl)phenyl)pyridin-3-ylamino)butyl)benzamido)propanoic acid], the Kb worked out at 60 nM.

In turn, `CCCC(Nc1ccc(C(=O)NCCC(=O)O)cn1)c1ccc(-c2ccc(C(F)(F)F)cc2)c(OC)c1` (stereo not drawn) [Example 4.23, 3-(6-(1-(2-methoxy-4′-(trifluoromethyl)biphenyl-4-yl)butylamino)nicotinamido)propanoic acid] showed a Kb of 75 nM.

The compound `CCCC(Nc1ccc(C(=O)NCCC(=O)O)cn1)c1ccc(-c2ccc(C(F)(F)F)cc2)cc1OC` (stereo not drawn) [Example 4.24, 3-(6-(1-(3-methoxy-4′-(trifluoromethyl)biphenyl-4-yl)butylamino)nicotinamido)propanoic acid] showed a Kb of 88 nM.

Compound `CCCC(Nc1ccc(C(=O)NCCC(=O)O)cn1)c1cnc(-c2ccc(OC(F)(F)F)cc2)nc1` (stereo not drawn) [Example 4.25, 3-(6-(1-(2-(4-(trifluoromethoxy)phenyl)pyrimidin-5-yl)butylamino)nicotinamido)propanoic acid] registered a Kb of 94 nM.

In turn, `O=C(O)CCNC(=O)c1ccc(NC(c2cnc(-c3ccc(C(F)(F)F)cc3)nc2)C2CCCC2)nc1` (stereo not drawn) [Example 4.28, 3-(6-(cyclopentyl(2-(4-(trifluoromethyl)phenyl)pyrimidin-5-yl)methylamino)nicotinamido)propanoic acid] gave a Kb of 56 nM.

Consider `CC(C)CC(Nc1cnc(-c2ccc(C(F)(F)F)cc2)nc1)c1ccc(C(=O)NCCC(=O)O)cc1` (stereo not drawn) [Example 4.31, 3-(4-(3-methyl-1-(2-(4-(trifluoromethyl)phenyl)pyrimidin-5-ylamino)butyl)benzamido)propanoic acid], for which the Kb came out at 55 nM.

In turn, `CC(C)CC(Nc1cnc(-c2ccc(C(F)(F)F)cc2)nc1)c1ccc(C(=O)NCCC(=O)O)nc1` (stereo not drawn) [Example 4.32] gave a Kb of 2700 nM.

`COC1CC(C(Nc2ccc(C(=O)NCCC(=O)O)cn2)c2ccc(-c3ccc(C(F)(F)F)cc3)cc2)C1` (stereo not drawn) [Example 4.33, 3-(6-((3-methoxycyclobutyl)(4′-(trifluoromethyl)biphenyl-4-yl)methylamino)nicotinamido)propanoic acid] displayed a Kb of 280 nM.

In turn, `O=C(O)CCNC(=O)c1ccc(NC(c2ccc(-c3ccc(C(F)(F)F)cc3)cc2)C2CCCOC2)nc1` (stereo not drawn) [Example 4.34, 3-(6-((tetrahydro-2H-pyran-3-yl)(4′-(trifluoromethyl)biphenyl-4-yl)methylamino)nicotinamido)propanoic acid] yielded a Kb of 120 nM.
